{
  "source": "patent US8192962B2",
  "about": "“Processes for detecting toxic substances” (Daikin Industries, Ltd., priority 2001, dated 2012)",
  "system": "Mitochondria-located protein genes",
  "experiment": "DNA chip mRNA expression in yeast, mitochondria-located protein genes (Table 2)",
  "assay_type": "cell-based, Saccharomyces cerevisiae S288C",
  "conditions": "cells incubated two hours with the chemical substance",
  "how_it_was_run": "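Expression change after 2 h toxicant exposure (growth-inhibiting, sub-lethal) of log-phase S. cerevisiae S288C at 25° C. Oligo-dT-purified mRNA was labeled with Cy3-dUTP or Cy5-dUTP and hybridized >12 h at 65° C. to a genome-wide chip; ratio of scanned fluorescence to control.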",
  "data": [
    {"smiles": "CCCCC[C@H](O)CC(=O)CCc1ccc(O)c(OC)c1", "note": "[(13), gingerol]", "values": [
      {"measurement": "The level of expressed mRNA in the presence of chemical substance/The level of expressed mRNA in the absence of chemical substance", "setting": "yeast gene YAL039C", "value": 1.6},
      {"measurement": "The level of expressed mRNA in the presence of chemical substance/The level of expressed mRNA in the absence of chemical substance", "setting": "yeast gene YAL044C", "value": 1.1},
      {"measurement": "The level of expressed mRNA in the presence of chemical substance/The level of expressed mRNA in the absence of chemical substance", "setting": "yeast gene YBR291C", "value": 1.0},
      {"measurement": "The level of expressed mRNA in the presence of chemical substance/The level of expressed mRNA in the absence of chemical substance", "setting": "yeast gene YCL009C", "value": 1.6},
      {"measurement": "The level of expressed mRNA in the presence of chemical substance/The level of expressed mRNA in the absence of chemical substance", "setting": "yeast gene YDL067C", "value": 0.6},
      {"measurement": "The level of expressed mRNA in the presence of chemical substance/The level of expressed mRNA in the absence of chemical substance", "setting": "yeast gene YDR268W", "value": 1.0},
      {"measurement": "The level of expressed mRNA in the presence of chemical substance/The level of expressed mRNA in the absence of chemical substance", "setting": "yeast gene YDR377W", "value": 0.7},
      {"measurement": "The level of expressed mRNA in the presence of chemical substance/The level of expressed mRNA in the absence of chemical substance", "setting": "yeast gene YDR529C", "value": 0.7},
      {"measurement": "The level of expressed mRNA in the presence of chemical substance/The level of expressed mRNA in the absence of chemical substance", "setting": "yeast gene YGL068W", "value": 1.0},
      {"measurement": "The level of expressed mRNA in the presence of chemical substance/The level of expressed mRNA in the absence of chemical substance", "setting": "yeast gene YGL187C", "value": 0.7},
      {"measurement": "The level of expressed mRNA in the presence of chemical substance/The level of expressed mRNA in the absence of chemical substance", "setting": "yeast gene YGL191W", "value": 1.1},
      {"measurement": "The level of expressed mRNA in the presence of chemical substance/The level of expressed mRNA in the absence of chemical substance", "setting": "yeast gene YGR029W", "value": 1.0},
      {"measurement": "The level of expressed mRNA in the presence of chemical substance/The level of expressed mRNA in the absence of chemical substance", "setting": "yeast gene YGR112W", "value": 1.1},
      {"measurement": "The level of expressed mRNA in the presence of chemical substance/The level of expressed mRNA in the absence of chemical substance", "setting": "yeast gene YGR220C", "value": 1.1},
      {"measurement": "The level of expressed mRNA in the presence of chemical substance/The level of expressed mRNA in the absence of chemical substance", "setting": "yeast gene YHR037W", "value": 1.1},
      {"measurement": "The level of expressed mRNA in the presence of chemical substance/The level of expressed mRNA in the absence of chemical substance", "setting": "yeast gene YIL070C", "value": 0.7},
      {"measurement": "The level of expressed mRNA in the presence of chemical substance/The level of expressed mRNA in the absence of chemical substance", "setting": "yeast gene YIL094C", "value": 0.7},
      {"measurement": "The level of expressed mRNA in the presence of chemical substance/The level of expressed mRNA in the absence of chemical substance", "setting": "yeast gene YJL096W", "value": 0.7},
      {"measurement": "The level of expressed mRNA in the presence of chemical substance/The level of expressed mRNA in the absence of chemical substance", "setting": "yeast gene YKL150W", "value": 1.8},
      {"measurement": "The level of expressed mRNA in the presence of chemical substance/The level of expressed mRNA in the absence of chemical substance", "setting": "yeast gene YKL194C", "value": 1.1},
      {"measurement": "The level of expressed mRNA in the presence of chemical substance/The level of expressed mRNA in the absence of chemical substance", "setting": "yeast gene YLL001W", "value": 1.7},
      {"measurement": "The level of expressed mRNA in the presence of chemical substance/The level of expressed mRNA in the absence of chemical substance", "setting": "yeast gene YMR023C", "value": 1.1},
      {"measurement": "The level of expressed mRNA in the presence of chemical substance/The level of expressed mRNA in the absence of chemical substance", "setting": "yeast gene YMR203W", "value": 1.1},
      {"measurement": "The level of expressed mRNA in the presence of chemical substance/The level of expressed mRNA in the absence of chemical substance", "setting": "yeast gene YMR267W", "value": 0.7},
      {"measurement": "The level of expressed mRNA in the presence of chemical substance/The level of expressed mRNA in the absence of chemical substance", "setting": "yeast gene YNL284C", "value": 1.0},
      {"measurement": "The level of expressed mRNA in the presence of chemical substance/The level of expressed mRNA in the absence of chemical substance", "setting": "yeast gene YOR187W", "value": 0.7},
      {"measurement": "The level of expressed mRNA in the presence of chemical substance/The level of expressed mRNA in the absence of chemical substance", "setting": "yeast gene YOR316C", "value": 1.6},
      {"measurement": "The level of expressed mRNA in the presence of chemical substance/The level of expressed mRNA in the absence of chemical substance", "setting": "yeast gene YPL215W", "value": 0.7},
      {"measurement": "The level of expressed mRNA in the presence of chemical substance/The level of expressed mRNA in the absence of chemical substance", "setting": "yeast gene YPR134W", "value": 1.1}
    ]}
  ]
}
